Measured values published in patent US7067503B2, “17-aryl linker derivatised estrogen 3-sulphamates as inhibitors of steroid sulphatase” (priority 2000, dated 2006).
pIC50: −log10 of the molar value. Like-named read-outs stand apart in the source and are kept apart here.

Key:
STS = target: T1, STS (Homo sapiens, UniProt P08842); test: Plate assay, % inhibition
T1 sequence (P08842 22-583): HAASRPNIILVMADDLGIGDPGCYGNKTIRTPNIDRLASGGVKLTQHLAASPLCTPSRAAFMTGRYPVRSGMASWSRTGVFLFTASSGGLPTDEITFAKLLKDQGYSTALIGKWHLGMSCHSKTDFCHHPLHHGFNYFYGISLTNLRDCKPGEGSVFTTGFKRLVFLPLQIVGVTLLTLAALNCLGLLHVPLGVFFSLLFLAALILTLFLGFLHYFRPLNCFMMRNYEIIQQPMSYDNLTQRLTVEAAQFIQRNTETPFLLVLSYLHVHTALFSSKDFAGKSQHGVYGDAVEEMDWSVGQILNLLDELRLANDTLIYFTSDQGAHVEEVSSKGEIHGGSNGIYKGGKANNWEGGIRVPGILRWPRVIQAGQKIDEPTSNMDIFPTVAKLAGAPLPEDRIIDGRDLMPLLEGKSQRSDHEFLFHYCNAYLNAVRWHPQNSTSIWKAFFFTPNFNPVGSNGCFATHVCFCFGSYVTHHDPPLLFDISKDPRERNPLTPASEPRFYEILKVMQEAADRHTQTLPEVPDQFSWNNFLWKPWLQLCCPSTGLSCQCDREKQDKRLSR

T47D cell = T47D cell growth, % inhibition; type: cell-based; details: Homo sapiens
steroid sulphatase = target: T2, steroid sulphatase (Homo sapiens, UniProt P08842); test: Inhibition of steroid sulphatase activity in placental microsomes (Protocol 2); type: biochemical; details: for inhibition at 0.01 µM / inhibition at 0.1 µM / inhibition at 10 µM: read-out: Placental Microsomes, % inhibition
T2 construct: Sulphatase-positive human placenta from normal term pregnancies are thoroughly minced with scissors; from tissue; host or cells: human term placenta (2000 g supernatant / microsomes)
Method: Inhibition of Steroid Sulphatase Activity in Placental Microsomes
Sulphatase-positive human placenta from normal term pregnancies are thoroughly minced with scissors and washed once with cold phosphate buffer (pH 7.4, 50 mM) then re-suspended in cold phosphate buffer (5 ml/g tissue). Homogenisation is accomplished with an Ultra-Turrax homogeniser, using three 10 second bursts separated by 2 minute cooling periods in ice. Nuclei and cell debris are removed by centrifuging (4° C.) at 2000 g for 30 minutes and portions (2 ml) of the supernatant are stored at 20° C.
Incubations (1 ml) are carried out using a protein concentration of 100 mg/ml, substrate concentration of 20 mM [6,7–3H]oestrone-3-sulphate (specific activity 60 Ci/mmol from New England Nuclear, Boston, Mass., U.S.A.) and an incubation time of 20 minutes at 37° C. If necessary eight concentrations of compounds are employed: 0 (i.e. control); 0.05 mM; 0.1 mM; 0.2 mM; 0.4 mM; 0.6 mM; 0.8 mM; 1.0 mM. After incubation each sample is cooled and the medium (1 ml) was pipetted into separate tubes containing [14C]oestrone (7×10^3 dpm) (specific activity 97 Ci/mmol from Amersham International Radiochemical Centre, Amersham, U.K.). The mixture is shaken thoroughly for 30 seconds with toluene (5 ml). […] A portion (2 ml) of the organic phase was removed, evaporated and the 3H and 14C content of the residue determined by scintillation spectrometry. The mass of oestrone-3-sulphate hydrolysed is calculated from the 3H counts obtained (corrected for the volumes of the medium and organic phase used, and for recovery of [14C]oestrone added) and the specific activity of the substrate.

E1-STS enzyme = target: T3, E1-STS enzyme (Homo sapiens, UniProt P08842); details: cited from earlier work
T3 sequence (P08842 22-583): T1 sequence (P08842 22-583)

tubulin = details: at high concentrations; cited from earlier work
[1] = test system: Meth A sarcoma, B16 melanoma or MDA-MB-435 estrogen receptor negative (ER−) breast cancer cells; details: subcutaneous injection of tumour cells; cited from earlier work
T47D cells = test: IC50 in T47D cells (table footnote); type: cell-based; details: Homo sapiens
Method: The STS inhibition provided by the compounds was determined in accordance with a plate assay and the Protocols set out herein.

[2] = in vivo; cited from earlier work
[3] = rats; cited from earlier work
[4] = rats, higher than that of estradiol; cited from earlier work
[5] = 0.1 μM, -ve % means stimulation
[6] = read-out: Plate assay % inhibition
[7] = 10 nM, superscript 1 or 2 = run with the reference values of that footnote, -ve % means stimulation
[8] = 1 μM, superscript 1 or 2 = run with the reference values of that footnote, -ve % means stimulation
[9] = 0.1 μM, read-out: Plate Assay, % inhibition
[10] = 1 μM, read-out: Plate Assay, % inhibition
[11] = 10 μM, read-out: Plate Assay, % inhibition

COc1cc2c(cc1O)CCC1C2CC[C@@]2(C)C1CC[C@@]2(O)Cc1cccc(Br)c1 (stereo partly drawn)
melting point: 173 to 177 °C

C[C@]12CCC3c4ccc(O)cc4CCC3C1CC[C@@]2(O)Cc1ccccn1 (stereo partly drawn)
melting point: 250 to 255 °C

C[C@]12CC[C@@H]3c4ccc(OS(N)(=O)=O)cc4CC[C@H]3[C@@H]1CC[C@@H]2O [BLE00084]
Plate assay % inhibition (STS; [5]): 4%
Plate assay % inhibition (STS; 10 μM, -ve % means stimulation): 23%

CC1=C2CCC3c4ccc(OS(N)(=O)=O)cc4CCC3C2CC1 (stereo not drawn) [BLE00086]
inhibition at 0.1 µM (STS; [6]): 8%
inhibition at 1 µM (STS; [6]): 3%
inhibition at 10 µM (STS; [6]): 14%
inhibition at 10 µM (T47D cell): 93.2%

COc1cc2c(cc1O)CCC1C2CC[C@@]2(C)C1CC[C@@]2(O)Cc1ccc(C(C)(C)C)cc1 (stereo partly drawn) [BLE01008, 3,17β-Dihydroxy-17α-(4-tert-butylbenzyl)-2-methoxyestra-1,3,5(10)-triene]
inhibition at 0.1 µM (STS; [6]): -12%
inhibition at 1 µM (STS; [6]): -15%
melting point: 223 to 225 °C

COc1cc2c(cc1O)CCC1C2CC[C@@]2(C)C1CC[C@@]2(O)Cc1ccccc1 (stereo partly drawn) [BLE01014, 3,17β-Dihydroxy-17α-benzyl-2-methoxyestra-1,3,5(10)-triene]
inhibition at 0.1 µM (STS; [6]): -14%
inhibition at 1 µM (STS; [6]): -14%
melting point: 209 to 213 °C

COc1cc2c(cc1OS(N)(=O)=O)CC[C@@H]1[C@@H]2CC[C@@]2(C)[C@H]1CC[C@@]2(O)Cc1ccc(C(C)(C)C)cc1 [BLE01016, 3-O-Sulfamate 17β-hydroxy-17α-(4-tert-butylbenzyl)-2-methoxyestra-1,3,5(10) -triene]
inhibition at 0.1 µM (STS; [6]): -14%
inhibition at 1 µM (STS; [6]): -10%
inhibition at 10 µM (STS; [6]): -3%
pIC50 (steroid sulphatase): 5.37

COc1cc2c(cc1OS(N)(=O)=O)CC[C@@H]1[C@@H]2CC[C@@]2(C)[C@H]1CC[C@@]2(O)Cc1ccccc1 [BLE01018, 3-O-Sulfamate 17β-hydroxy-17α-benzyl-2-methoxyestra-1,3,5(10)-triene]
inhibition at 0.1 µM (STS; [6]): -19%
inhibition at 1 µM (STS; [6]): -12%
pIC50 (steroid sulphatase): 6.37

CC12CCC3c4ccc(OS(N)(=O)=O)cc4CCC3C1CCC2OS(N)(=O)=O (stereo not drawn) [BLE99031B]
inhibition at 0.1 µM (STS; [6]): 7%
inhibition at 1 µM (STS; [6]): 12%
inhibition at 10 µM (STS; [6]): 32%
pIC50 (steroid sulphatase): 7.70

CC(=O)NS(=O)(=O)O[C@H]1CCC2C3CCc4cc(O)ccc4C3CC[C@@]21C (stereo partly drawn) [BLE99058]
Plate assay % inhibition (STS; [5]): 4%
Plate assay % inhibition (STS; 1 μM, -ve % means stimulation): 1%
Placental Microsomes % inhibition (steroid sulphatase; [7]): 0.9^1%
Placental Microsomes % inhibition (steroid sulphatase; [8]): 7.8^1%

C[C@]12CCC3c4ccc(O)cc4CCC3C1CC[C@@H]2OS(=O)(=O)N(Cc1ccccc1)Cc1ccccc1 (stereo partly drawn) [BLE99060]
Placental Microsomes % inhibition (steroid sulphatase; [7]): −3.2^2%
Placental Microsomes % inhibition (steroid sulphatase; [8]): 1.36^2%

C[C@]12CCC3c4ccc(OS(N)(=O)=O)cc4CCC3C1CC[C@@H]2OS(=O)(=O)N(Cc1ccccc1)Cc1ccccc1 (stereo partly drawn) [BLE99063]
Plate assay % inhibition (STS; [5]): 0%
Plate assay % inhibition (STS; 1 μM, -ve % means stimulation): 15%
Placental Microsomes % inhibition (steroid sulphatase; [7]): −1.9^1%
Placental Microsomes % inhibition (steroid sulphatase; [8]): 38.2^1%

CC(=O)NS(=O)(=O)O[C@H]1CCC2C3CCc4cc(OS(N)(=O)=O)ccc4C3CC[C@@]21C (stereo partly drawn) [BLE99065]
Plate assay % inhibition (STS; [5]): 7%
Plate assay % inhibition (STS; 1 μM, -ve % means stimulation): 5%
Plate assay % inhibition (STS; 10 μM, -ve % means stimulation): 23%
Placental Microsomes % inhibition (steroid sulphatase; [7]): 9.8^1%
Placental Microsomes % inhibition (steroid sulphatase; [8]): 91.0^1%

C[C@]12CCC3c4ccc(O)cc4CCC3C1CC[C@H]2OS(=O)(=O)N(Cc1ccccc1)Cc1ccccc1 (stereo partly drawn) [BLE99066]
Plate assay % inhibition (STS; [5]): 11%
Plate assay % inhibition (STS; 1 μM, -ve % means stimulation): 5%
Plate assay % inhibition (STS; 10 μM, -ve % means stimulation): 27%
Placental Microsomes % inhibition (steroid sulphatase; [7]): 1.4^1%
Placental Microsomes % inhibition (steroid sulphatase; [8]): 4.5^1%

CN(C)S(=O)(=O)O[C@H]1CCC2C3CCc4cc(O)ccc4C3CC[C@@]21C (stereo partly drawn) [BLE99067]
Plate assay % inhibition (STS; [5]): −5%
Plate assay % inhibition (STS; 1 μM, -ve % means stimulation): −1%
Plate assay % inhibition (STS; 10 μM, -ve % means stimulation): 50%
Placental Microsomes % inhibition (steroid sulphatase; [7]): −0.1^1%
Placental Microsomes % inhibition (steroid sulphatase; [8]): 8.7^1%

C[C@]12CCC3c4ccc(OS(N)(=O)=O)cc4CCC3C1CC[C@H]2OS(=O)(=O)N(Cc1ccccc1)Cc1ccccc1 (stereo partly drawn) [BLE99068]
Plate assay % inhibition (STS; [5]): −18%
Plate assay % inhibition (STS; 1 μM, -ve % means stimulation): −1%
Plate assay % inhibition (STS; 10 μM, -ve % means stimulation): 19%
Placental Microsomes % inhibition (steroid sulphatase; [7]): 4.9^1%
Placental Microsomes % inhibition (steroid sulphatase; [8]): 58.2^1%

CN(C)S(=O)(=O)OC1CCC2C3CCc4cc(OS(N)(=O)=O)ccc4C3CCC12C (stereo not drawn) [BLE99069]
Plate assay % inhibition (STS; [5]): 3%
Plate assay % inhibition (STS; 1 μM, -ve % means stimulation): 10%
Placental Microsomes % inhibition (steroid sulphatase; [7]): 30.3^1%
Placental Microsomes % inhibition (steroid sulphatase; [8]): 96.3^1%

CCCCCN(CCCCC)S(=O)(=O)O[C@H]1CCC2C3CCc4cc(O)ccc4C3CC[C@@]21C (stereo partly drawn) [BLE99073]
Placental Microsomes % inhibition (steroid sulphatase; [7]): 1.2^2%
Placental Microsomes % inhibition (steroid sulphatase; [8]): −11.8^2%

CCCCCN(CCCCC)S(=O)(=O)O[C@H]1CCC2C3CCc4cc(OS(N)(=O)=O)ccc4C3CC[C@@]21C (stereo partly drawn) [BLE99074]
Placental Microsomes % inhibition (steroid sulphatase; [8]): 23.7^2%

COc1cc2c(cc1OS(N)(=O)=O)CC[C@@H]1[C@@H]2CC[C@]2(C)C(=O)CC[C@@H]12 [Compound 2-MOEMATE, 2-methoxyoestrone-3-O-sulphamate, reference compound]
Plate assay % inhibition (STS; [5]): 15%
Plate assay % inhibition (STS; 1 μM, -ve % means stimulation): 42%
Plate assay % inhibition (STS; 10 μM, -ve % means stimulation): 88%
potency as a steroid sulphatase inhibitor relative to EMATE (E1-STS enzyme): equipotent with EMATE

COc1cc2c(cc1O)CC[C@@H]1[C@@H]2CC[C@]2(C)[C@@H](O)CC[C@@H]12 [Compound 2-MeOE2, 2-methoxyoestradiol]
inhibition of colchicine binding to tubulin (tubulin): weak inhibitor of colchicine binding to tubulin
growth of tumours in vivo [1]: inhibits the growth of tumours

CSc1cc2c(cc1OS(N)(=O)=O)CCC1C2CCC2(C)C1CCC2(O)Cc1ccc(C(C)(C)C)cc1 (stereo not drawn) [Compound 3]
inhibition at 0.1 µM (STS; [9]): < 1%
inhibition at 1 µM (STS; [10]): < 1%
inhibition at 10 µM (STS; [11]): 48%
inhibition at 0.01 µM (steroid sulphatase; 10 nM): 17.6%
inhibition at 0.1 µM (steroid sulphatase; 100 nM): 56%
inhibition at 10 µM (steroid sulphatase; 10 μM): 86.4%
pIC50 (steroid sulphatase; read-out: Placental Microsomes, IC50): 7.10

NS(=O)(=O)Oc1ccc(C(=O)c2ccccc2)cc1 [Compound 6]
Plate assay % inhibition (STS; 0.1 μM): <1%
Plate assay % inhibition (STS; 1 μM): 1%
Plate assay % inhibition (STS; 10 μM): 11%

CSc1cc2c(cc1OS(N)(=O)=O)CCC1C2CCC2(C)C(=O)CCC12 (stereo not drawn) [Compound 7]
inhibition at 0.1 µM (STS; [9]): 3%
inhibition at 1 µM (STS; [10]): 53%
inhibition at 10 µM (STS; [11]): 55%
pIC50 (T47D cells): 8.60
inhibition at 0.01 µM (steroid sulphatase; 10 nM): 5.4%

NS(=O)(=O)Oc1ccc(C(=O)C=Cc2ccccc2)cc1 [Compound 8]
Plate assay % inhibition (STS; 0.1 μM): <1%
Plate assay % inhibition (STS; 1 μM): <4%
Plate assay % inhibition (STS; 10 μM): 14%

NS(=O)(=O)Oc1ccc2oc3ccccc3c2c1 [Compound 9]
Plate assay % inhibition (STS; 0.1 μM): <1%
Plate assay % inhibition (STS; 1 μM): 1%
Plate assay % inhibition (STS; 10 μM): 16%
Placental Microsomes % inhibition (steroid sulphatase; 10 nM): <5%
Placental Microsomes % inhibition (steroid sulphatase; column head printed "μM"): 66.0%

C[C@]12CC[C@@H]3c4ccc(OS(=O)(=O)O)cc4CC[C@H]3[C@@H]1CCC2=O [Compound E1S, oestrone sulphate]
half-life in blood [2]: 10 to 12 h

CC12CCC3c4ccc(OS(N)(=O)=O)cc4CCC3C1CCC2=O (stereo not drawn) [EMATE, oestrone-3-sulphamate, reference compound]
memory effect [3]: memory enhancing effect
oral uterotrophic activity relative to estradiol [4]: 100 times
mode of E1-STS inhibition (E1-STS enzyme): time- and concentration-dependent manner
pIC50 (steroid sulphatase): 7.74
Placental Microsomes % inhibition (steroid sulphatase; human): 97.8%
inhibition at 0.01 µM (steroid sulphatase): 27.3%
inhibition at 0.1 µM (steroid sulphatase): 85.1%
inhibition at 10 µM (steroid sulphatase): 99.5%

COc1cc2c(cc1OS(N)(=O)=O)CCC1C2CCC2(C)C(OS(N)(=O)=O)CCC12 (stereo not drawn) [OSO2NH2, OMe, C-β-OSO2NH2, α-H]
inhibition at 0.1 µM (STS; [6]): 7%
inhibition at 1 µM (STS; [6]): 12%
inhibition at 10 µM (STS; [6]): 32%

oestrone-3-N-sulphamate
mode of E1-STS inhibition (E1-STS enzyme): weaker non-time-dependent inactivators

oestrone-3-S-sulphamate
mode of E1-STS inhibition (E1-STS enzyme): weaker non-time-dependent inactivators
